Measured values: PubChem BioAssay AID2060504 (Molecular Pharmacology Branch, DTP, NCI, 2025)

Test system: 636577-100-R-J1-PDC complex spheroid viability
Test: Anticancer human tumor 636577-100-R-J1-PDC patient-derived endometrial adenocarcinoma cell line growth inhibition [GQUAD]
Conditions: for IC50: curve of first compound; for viability, T/C: stronger effect = lower value
Description: DNA G-quadruplex Stabilizer Agents in Combinations in Complex Spheroids
A high-throughput screen of multi-cell type tumor spheroids was designed to identify active combinations of DNA G-quadruplex stabilizer agents and targeted small molecules. Complex spheroids include a stromal component modeled by human endothelial cells (HUVEC) and fibroblasts modeled by human mesenchymal stem cells (MSCs). The concentration ranges selected for each drug and investigational agent were based upon clinically achievable concentrations if the clinical Cmax of the agent was known.
Compounds. The drugs and investigational agents: pidnarulex (CX-5461; NSC782164), APTO-253 (NSC789042), BRACO-19 (NSC847499), peposertib (NSC802822), ceralasertib (NSC780249), elimusertib (NSC800525), camonsertib (NSC841442), AZD-1390 (NSC803789), olaparib (NSC753686), talazoparib (NSC767125), ART-558 (NSC835418), sotorasib (NSC818433), MRTX-1133 (NSC836407), SN-38 (NSC673596), topotecan (NSC609699), etoposide (NSC141540), doxorubicin (NSC123127), gemcitabine (NSC613327), 5-fluorouracil (NSC19893), paclitaxel (NSC125973), vemurafenib (NSC761431), panobinostat (NSC761190), R-306465 (JNJ-16241199; NSC773264), adavosertib (NSC754352), TP-3654 (NSC805149), carboplatin (NSC241240), KSQ-4279 (NSC840948), and staurosporine (NSC755774) were obtained from the National Cancer Institute (NCI) Developmental Therapeutics Program Chemical Repository (34). The FDA-approved anticancer drug set is available from the NCI Developmental Therapeutics Program. […] The stock solutions were prepared in dimethyl sulfoxide (DMSO, Sigma-Aldrich, St. Louis, MO, cat. D2650) at 800-fold the tested concentration and stored at -70 degrees C prior to their use. All drugs and investigational agents were tested over a range starting from a high concentration at or near the clinical Cmax and decreasing in half-log increments. If the clinical Cmax for an agent had not been determined, the highest concentration tested was 10 microM.
2.3 Cell Culture. All cells were maintained in an incubator at 37 degrees C and 5% CO2 with 95% humidity. The PDC lines were cultured according to standard operating procedures established by the NCI PDMR. All PDCs were thawed and cultured in Matrigel-coated flasks prepared with a working solution of 1X Ham's F-12 nutrient mix, without supplementation (Invitrogen, cat. 11765054), 100 U/mL penicillin-streptomycin (Invitrogen, cat. 15140122), and 2.5% Matrigel (Corning Inc., cat. 354248) for the first three passages. The 857933-349-R-J2-PDC line was cultured in 6C/Colon 1B media, which includes advanced DMEM/F-12 (Thermo Fisher Scientific, cat. 12634028), 10 mM HEPES (Thermo Fisher Scientific, cat. 15630080), 1X GlutaMAX supplement (Thermo Fisher Scientific, cat. 35050061), 0.1 mg/mL primocin (InvivoGen, cat. ant-pm-2), 10% defined fetal bovine serum, heat inactivated (HyClone Laboratories Inc., cat. SH30070.03HI), 50% L-WRN conditioned media (ATCC, cat. CRL-3276), 1.25 mM N-Acetyl-L-cysteine (Sigma-Aldrich, cat. A9165), 10 mM nicotinamide (Sigma-Aldrich, cat. N0636), 1X B-27 supplement (Thermo Fisher Scientific, cat. 17504044), 1X N-2 supplement (Thermo Fisher Scientific, cat. 17502048), 10 microM Y-27632 dihydrochloride (Tocris Bioscience, cat. 1254), and 50 ng/mL human EGF recombinant protein (Thermo Fisher Scientific, cat. PHG0311). The 485176-168-R4-J1-PDC line was cultured in Panc media, which includes all 6C/Colon 1B media components plus 100 ng/mL human FGF-10 (Thermo Fisher Scientific, cat. 100-26), 500 nM SB-431542 (Selleckchem, cat. S1067), and gastrin (Tocris, cat. 3006).
[…]
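Also: viability read after seven days of drug exposure.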
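For viability, T/C in this document: luminescence signal used as a proxy for viable cells; 100% = DMSO vehicle control wells.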

Structure (SMILES): COc1cccc2c1C(=O)c1c(O)c3c(c(O)c1C2=O)CC(O)(C(=O)CO)CC3OC1CC(N)C(O)C(C)O1 (configuration not stated) + Cc1cnc(CNC(=O)c2c(=O)c3ccc(N4CCCN(C)CC4)nc3n3c2sc2ccccc23)cn1
- IC50 (second compound 0.0316 µM): < 31.6 nM
- IC50 (second compound 0.1 µM): < 31.6 nM
- IC50 (second compound 0.316 µM): < 31.6 nM
- IC50 (second compound 1 µM): < 31.6 nM
- IC50 (second compound 3.16 µM): < 31.6 nM
- IC50 (second compound 10 µM): < 31.6 nM
- viability, T/C (second compound 0.0316 µM, first compound 0.0316 µM): 22.1%
- viability, T/C (second compound 0.0316 µM, first compound 0.1 µM): 16.6%
- viability, T/C (second compound 0.0316 µM, first compound 0.316 µM): 15.6%
- viability, T/C (second compound 0.0316 µM, first compound 1 µM): 8.2%
- viability, T/C (second compound 0.0316 µM, first compound 3.16 µM): 0.23%
- viability, T/C (second compound 0.0316 µM, first compound 10 µM): 0.38%
- viability, T/C (second compound 0.1 µM, first compound 0.0316 µM): 19.2%
- viability, T/C (second compound 0.1 µM, first compound 0.1 µM): 15.4%
- viability, T/C (second compound 0.1 µM, first compound 0.316 µM): 13.4%
- viability, T/C (second compound 0.1 µM, first compound 1 µM): 7.3%
- viability, T/C (second compound 0.1 µM, first compound 3.16 µM): 0.09%
- viability, T/C (second compound 0.1 µM, first compound 10 µM): 0.33%
- viability, T/C (second compound 0.316 µM, first compound 0.0316 µM): 19%
- viability, T/C (second compound 0.316 µM, first compound 0.1 µM): 16.6%
- viability, T/C (second compound 0.316 µM, first compound 0.316 µM): 13.1%
- viability, T/C (second compound 0.316 µM, first compound 1 µM): 7.79%
- viability, T/C (second compound 0.316 µM, first compound 3.16 µM): 0.05%
- viability, T/C (second compound 0.316 µM, first compound 10 µM): 0.28%
- viability, T/C (second compound 1 µM, first compound 0.0316 µM): 18.3%
- viability, T/C (second compound 1 µM, first compound 0.1 µM): 15.7%
- viability, T/C (second compound 1 µM, first compound 0.316 µM): 12.5%
- viability, T/C (second compound 1 µM, first compound 1 µM): 6.92%
- viability, T/C (second compound 1 µM, first compound 3.16 µM): 0.05%
- viability, T/C (second compound 1 µM, first compound 10 µM): 0.3%
- viability, T/C (second compound 3.16 µM, first compound 0.0316 µM): 13.3%
- viability, T/C (second compound 3.16 µM, first compound 0.1 µM): 17.1%
- viability, T/C (second compound 3.16 µM, first compound 0.316 µM): 14.2%
- viability, T/C (second compound 3.16 µM, first compound 1 µM): 0.81%
- viability, T/C (second compound 3.16 µM, first compound 3.16 µM): 0.07%
- viability, T/C (second compound 3.16 µM, first compound 10 µM): 0.15%
- viability, T/C (second compound 10 µM, first compound 0.0316 µM): 17.1%
- viability, T/C (second compound 10 µM, first compound 0.1 µM): 15.1%
- viability, T/C (second compound 10 µM, first compound 0.316 µM): 15.2%
- viability, T/C (second compound 10 µM, first compound 1 µM): 0.07%
- viability, T/C (second compound 10 µM, first compound 3.16 µM): 0.11%
- viability, T/C (second compound 10 µM, first compound 10 µM): 0.15%
